The values that follow come from US20120152149A1, “USE OF 1,3-DIOLS AS BIOCIDES” (BASF SE, priority 2009, published 2012).

Some results are limits rather than exact numbers.

What all share (assay type): cell-based
The subject of assay [1] is E. coli ATCC 10536. The assay is described as follows: Suspension test EN 1040, bactericidal activity. The note with it: 1000 ppm of active substance. As to the method:
(§1) The bactericidal activity of the substances of this invention was carried out in a suspension test corresponding to the European standard EN 1040 and compared with the activities of customary commercial products. For this, only relatively small modifications were made. The substances of the formula (1) were dissolved in water or ethanol to give a 1% strength stock solution. For determining the bactericidal activities, the test mixtures were selected such that 1000 ppm of active substance was present in an aqueous solution. The procedure was the same with the comparison samples. For the results shown in table 2, the test mixtures were inoculated with the following bacterial strains such that the stated germ densities were present in the test mixtures. E. coli ATCC 10536 1−2×10^7 CFU/ml The test mixtures were incubated at room temperature (22° C.+/−2° C.). After defined contact times, aliquots of 1 ml were taken in order to determine the surviving germ count. For the deactivation of the microbicidal activity of the diols, the aliquots were diluted in 1:10 dilution steps in a solution of TS broth with 10% Tween, 3% lecithin, 0.1% histidines and 0.5% sodium thiosulfate and the 10^−2 and 10^−3 dilution stages were used for determining the surviving germ count. For this purpose, corresponding aliquots were plated out on Caso medium with inhibitor (Merck) and incubated at 37° C. for 24 h. The ascertained surviving germ counts were in each case compared with a mixture containing water (water control) by determining the logarithmic reduction in the surviving germ counts based on the water control.

The subject of assay [2] is S. aureus ATCC 6538. The assay is described as follows: Suspension test EN 1040, bactericidal activity. The note with it: 1000 ppm of active substance. As to the method: as §1, with “S. aureus” for “E. coli”, “6538” for “10536”
The subject of assay [3] is A. niger ATCC 6275. The assay is described as follows: Suspension test EN 1275, fungicidal activity against molds. The following applies: 1% active substance in the test.
Assay [4] concerns C. albicans ATCC 10231. The assay is described as follows: Preservation stress test, example formulation 2 (roll-on deodorant formulation). The note with it: 1% active substance.
Assay [5] concerns P. aeruginosa ATCC 15442. The description is as above. The note with it: 1% active substance.
Assay [6] deals with E. coli ATCC 10536, S. aureus ATCC 6538, P. aeruginosa ATCC 15442. The assay is described as follows: Preservation stress test, example formulation 1 (standard emulsion O/W), bacteria together. The following applies: 1% active substance, P. aeruginosa (one time series). As to the method:
Preservation stress tests (PSTs) were carried out in order to determine the preserving activity of the diols. In the preservation stress test, this is simulated through artificial loadings with microorganisms. These can either be inoculated as mixed population or individually in mixtures independent of one another. The inoculated product samples are incubated under defined conditions and, after defined times, samples are taken in order to determine the germ loading. In the case of adequate preservation, the number of microorganisms should, depending on the type, either decrease or remain constant in order to satisfy the requirements specified, e.g. in Ph. Eur. 6.0. To investigate the preserving effect of the diols, application-typical amounts of the diols were incorporated into example formulations. […] [table] These example formulations were used to prepare various mixtures which each comprised 1% active substance or comprised water instead of the active substance as placebo mixtures. These mixtures were in each case inoculated with the test germs such that a germ loading of 10^5-10^6 CFU/g was present in the test mixture. The bacteria were either used individually for the inoculation or as a mixed culture. To determine the starting germ count, immediately after inoculation, an aliquot was taken, diluted in dilution medium (phosphate buffer, 0.07 molar pH 7.4 (+/−0.2), with 1% Tween 80+0.3% soya lecithin), and the surviving germ count was determined in the dilution stages 10^−1 to 10^−3. The inoculated product samples then incubated for a total of 28 d at 20-25° C. After 2 d, 7 d, 14 d and after 28 d, aliquots were taken and diluted in dilution medium (phosphate buffer, 0.07 molar pH 7.4 (+/−0.2), with 1% Tween 80+0.3% soya lecithin). The surviving germ counts were determined in the dilution stages 10^−1 to 10^−4. The reference point taken for determining the reduction in germ count was the respective initial value of the sample. The results were given as logarithmic reductions.

As to `CCCC(O)CO` (stereo not drawn) [1,2-Pentanediol, 1,2-pentanediol, reference compound], the “Microbicidal activity given as logarithmic reduction in germ count” value in assay [1] (contact time 5 min), in assay [1] (contact time 30 min), in assay [1] (contact time 24 h), in assay [2] (contact time 5 min), in assay [2] (contact time 30 min) and in assay [2] (contact time 24 h) was less than 1 log. red each time. For the same compound, the “Microbicidal activity given as logarithmic reduction in germ count” value in assay [3] (contact time 24 h) is on record as less than 1 log. red; in assay [3] (contact time 7 d), less than 1 log. red; in assay [4] (48 h) it was 0 log. Red; in assay [4] (7 d), 0 log. Red; in assay [4] (14 d), 0 log. Red; in assay [5] (48 h) it was 0 log. Red. The “Microbicidal activity given as logarithmic reduction in germ count” value is on record as 3 log. Red in assay [5] (7 d) and 5 log. Red in assay [5] (14 d).
Turning to `OCC1(CO)CC2CCC1C2` (stereo not drawn) [2,2-DMNB, 2,2-dimethylolnorbornane], the “Microbicidal activity given as logarithmic reduction in germ count” value in assay [6] (48 h) is reported as “≧3 log. Red”; in assay [6] (7 d), 5 log. Red; in assay [6] (14 d), 5 log. Red; in assay [6] (28 d) it was 5 log. Red; in assay [4] (48 h), 0 log. Red; in assay [4] (7 d), “≧3 log. Red”. The “Microbicidal activity given as logarithmic reduction in germ count” value in assay [4] (14 d) is on record as 0 log. Red; in assay [5] (48 h), 3 log. Red; in assay [5] (7 d), 5 log. Red; in assay [5] (14 d), 5 log. Red; in assay [5] (28 d), 5 log. Red.
In the case of `OCC1(CO)CCCC1` [DMCP, 1,1-dimethylolcyclopentane], the “Microbicidal activity given as logarithmic reduction in germ count” value was 3 log. Red in assay [6] (48 h); 5 log. Red in assay [6] (7 d); 5 log. Red in assay [6] (14 d); 5 log. Red in assay [6] (28 d); 0 log. Red in assay [4] (48 h); 0 log. Red in assay [4] (7 d). Also, the “Microbicidal activity given as logarithmic reduction in germ count” value in assay [4] (14 d) is recorded as 0 log. Red; in assay [5] (48 h) it was 1 log. Red; in assay [5] (7 d) it was “≧3 log. Red”; in assay [5] (14 d), 5 log. Red; in assay [5] (28 d), 5 log. Red.
Consider `CC(C)C(C)(CO)CO` [IMPD, 2-isopropyl-2-methylpropane-1,3-diol], for which the “Microbicidal activity given as logarithmic reduction in germ count” value in assay [6] (48 h) is “≧3 log. Red”; in assay [6] (7 d), 5 log. Red; in assay [6] (14 d) it was 5 log. Red; in assay [6] (28 d) it was 5 log. Red; in assay [4] (48 h), 0 log. Red; in assay [4] (7 d), 0 log. Red. Also, the “Microbicidal activity given as logarithmic reduction in germ count” value was 0 log. Red in assay [4] (14 d); 1 log. Red in assay [5] (48 h); “≧3 log. Red” in assay [5] (7 d); 5 log. Red in assay [5] (14 d); 5 log. Red in assay [5] (28 d).
`CCCCCCCCC(C)(CO)CO` [OMPD, 2-octyl-2-methylpropane-1,3-diol]: the “Microbicidal activity given as logarithmic reduction in germ count” value in assay [1] (contact time 5 min) is on record as greater than 5 log. red; in assay [1] (contact time 30 min), greater than 5 log. red; in assay [1] (contact time 24 h) it was greater than 5 log. red; in assay [2] (contact time 5 min), less than 1 log. red; in assay [2] (contact time 30 min), 4.8 log. red; in assay [2] (contact time 24 h), greater than 5 log. red. Also, the “Microbicidal activity given as logarithmic reduction in germ count” value in assay [3] (contact time 24 h) is recorded as less than 1 log. red; in assay [3] (contact time 7 d), 2.6 log. red; in assay [6] (48 h) it was “≧3 log. Red”; in assay [6] (7 d), 5 log. Red; in assay [6] (14 d), 5 log. Red; in assay [6] (28 d), 5 log. Red. Besides, the “Microbicidal activity given as logarithmic reduction in germ count” value in assay [4] (48 h) was 0 log. Red; in assay [4] (7 d) it was 0 log. Red; in assay [4] (14 d), 0 log. Red; in assay [5] (48 h), “≧3 log. Red”; in assay [5] (7 d), 5 log. Red; in assay [5] (14 d) it was 5 log. Red. Moreover, the “Microbicidal activity given as logarithmic reduction in germ count” value in assay [5] (28 d) came out at 5 log. Red.
